Data from ChEMBL document CHEMBL3351645, “Design and synthesis of γ-butyrolactone derivatives as potential spermicidal agents” (Bioorg Med Chem Lett, 2014).
Calls of active or inactive are those of the source. The calls are words filed in the database; no cut-off is given here.

Assays:
[1] = system: Spermatozoa; test: Spermicidal activity in human semen assessed as induction of spermatozoa immotility at <0.1% w/v by Sander-Cramer method; assay type: functional
[2] = system: Spermatozoa; test: Spermicidal activity in human semen assessed as induction of spermatozoa immotility at 0.1% w/v by Sander-Cramer method; assay type: functional, cell-based
[3] = system: Spermatozoa; test: Spermicidal activity in human semen assessed as induction of spermatozoa immotility by Sander-Cramer method; assay type: functional
[4] = system: HeLa; test: Cytotoxicity against human HeLa cells; assay type: cell-based
[5] = system: Spermatozoa; test: Inhibition of free thiols level in human semen derived spermatozoa at 1% incubated for 15 mins by monobromobimane dye based fluorescence microscopy; assay type: functional, cell-based

SMILES	MEC [1]	Activity [2]	MEC [3]	IC50 [4]	inhibition [5]
CCCCCCCCCc1ccc(OCCOCCOCCOCCOCCOCCOCCOCCOCCO)cc1 [NONOXYNOL 9]	0.02%	–	–	–	–
O=C(/C=C/c1ccc(O)cc1)C1(CCN2CCCC2)CCOC1=O (stereo unspecified)	–	inactive	–	–	–
CC(=O)C1(CCN2CCCC2)CCOC1=O (stereo unspecified)	–	–	inactive	–	–
CCN(CC)CCC1(C(C)=O)CCOC1=O (stereo unspecified)	–	–	inactive	–	–
CN(C)c1ccc(/C=C/C(=O)C2(CCN3CCOCC3)CCOC2=O)cc1.O=C(O)C(O)C(O)C(=O)O (stereo unspecified)	0.5%	–	0.5%	1330 µg/mL	–
CC(=O)C1(CCN2CCOCC2)CCOC1=O (stereo unspecified)	–	–	inactive	–	–
COc1cc(/C=C/C(=O)C2CCOC2=O)ccc1O (stereo unspecified)	–	inactive	–	–	–
CCN(CC)CCC1(C(=O)/C=C/c2ccc(N(C)C)cc2)CCOC1=O (stereo unspecified)	–	inactive	–	–	–
O=C(/C=C/c1ccc(O)cc1)C1(CCN2CCOCC2)CCOC1=O.O=C(O)C(O)C(O)C(=O)O (stereo unspecified)	0.05%	–	0.05%	961 µg/mL	Active
COc1cc(/C=C/C(=O)C2(CCN3CCCC3)CCOC2=O)ccc1O (stereo unspecified)	–	inactive	–	–	–
CC(=O)C1(CCCN(C)C)CCOC1=O (stereo unspecified)	–	–	inactive	–	–
CN(C)CCCC1(C(=O)/C=C/c2ccc(O)cc2)CCOC1=O.O=C(O)C(O)C(O)C(=O)O (stereo unspecified)	0.5%	–	0.5%	661 µg/mL	–
O=C(/C=C/c1ccc(O)cc1)C1CCOC1=O (stereo unspecified)	–	inactive	inactive	–	–
CN(C)CCCC1(C(=O)/C=C/c2ccc(N(C)C)cc2)CCOC1=O.O=C(O)C(O)C(O)C(=O)O (stereo unspecified)	0.1%	–	0.5%	1200 µg/mL	–
CCN(CC)CCC1(C(=O)/C=C/c2ccc(O)c(OC)c2)CCOC1=O (stereo unspecified)	–	inactive	–	–	–
COc1cc(/C=C/C(=O)C2(CCCN(C)C)CCOC2=O)ccc1O.O=C(O)C(O)C(O)C(=O)O (stereo unspecified)	0.05%	–	0.05%	269 µg/mL	inactive
CN(C)c1ccc(/C=C/C(=O)C2CCOC2=O)cc1 (stereo unspecified)	–	inactive	inactive	–	–
CN(C)c1ccc(/C=C/C(=O)C2(CCN3CCCC3)CCOC2=O)cc1 (stereo unspecified)	–	inactive	–	–	–
CCN(CC)CCC1(C(=O)/C=C/c2ccc(O)cc2)CCOC1=O (stereo unspecified)	–	inactive	–	–	–
COc1cc(/C=C/C(=O)C2(CCN3CCOCC3)CCOC2=O)ccc1O.O=C(O)C(O)C(O)C(=O)O (stereo unspecified)	0.1%	–	0.5%	848 µg/mL	–
